We go through ten molecules from publication PMC9856044 (Biomolecules, 2023).

Counter-ions that a name gives are not always drawn.

Data set [1] deals with Tel22 (DNA, G4) AGGGTTAGGGTTAGGGTTAGGG
Description: fluorescence titration (SPECFIT). As to conditions: pH 7.0, 25 °C; for logKa: K+ (potassium phosphate, I = 0.1 M); for logKa1: Na+ (sodium cacodylate, I = 0.1 M).

Data set [2] shares this test system. Description: UV thermal melting, 260 nm. As to conditions: pH 7.0, Tel22 2 µM, r = 1.0 (compound 2 µM).
The test system of data set [3] is poly(dGdC)2 (GC-DNA) (DNA, polymer) GC. As to the kind of experiment: CD titration (ICD). As to conditions: Na+ (sodium cacodylate, I = 0.05 M), pH 7.0, 25 °C.
The subject of data set [4] is poly(dAdT)2 (AT-DNA) (DNA, polymer) AT. Description: CD titration (ICD). As to conditions: Na+ (sodium cacodylate, I = 0.05 M), pH 7.0, 25 °C.
The subject of data set [5] is poly A–poly U (AU-RNA) (RNA, polymer) A/U. As to the kind of experiment: CD titration (ICD). The conditions noted are these: Na+ (sodium cacodylate, I = 0.05 M), pH 7.0, 25 °C.
Data set [6] deals with poly(dAdT)2 (AT-DNA) (DNA, polymer) AT. Description: UV thermal melting, 260 nm. As to conditions: Na+ (sodium cacodylate, I = 0.05 M); pH 7.0; r [compound]/[nucleotide phosphate] = 0.1; per base.
Data set [7] is described as follows: Solubility and aggregation (UV/Vis characterization). The class given is physicochemical. As to conditions: for Aggregation in aqueous buffer: sodium cacodylate buffer, I = 0.05 mol dm^−3, pH = 7.0, UV/Vis. As for the experimental part:
The UV/vis spectra were recorded on a Varian Cary 100 Bio spectrophotometer (Agilent, Santa Clara, CA, USA), CD spectra on JASCO J815 spectrophotometer (ABL&E Handels GmbH, Wien, Austria) and fluorescence spectra on a Varian Cary Eclipse spectrophotometer (Agilent, Santa Clara, CA, USA) at 25 °C using appropriate 1 cm path quartz cuvettes.
Studied compounds, 1–6 were soluble (c = 8 × 10^−4 mol dm^−3) in DMSO. […] Therefore, the stock solution of 2 was prepared fresh before use. The experiments were done in aqueous buffer (sodium cacodylate buffer, I = 0.05 mol dm^−3; pH = 7.0).
However, the shape of UV/Vis spectra of cyanine 2 changed with increasing concentration (calibration experiment in Figure S2 in SI). In addition to the dominant maximum at 432 nm (which most likely corresponds to the monomer form of the dye), the absorption band at 413 nm becomes more intense (Figure S2 in SI). Presumably, it corresponds to the aggregated form (H-aggregate). Based on the existence of an absorption band at 432 nm, only the monomer dye form is visible at high temperature (95 °C) (Figure S8b in SI). However, after cooling the solution to 25 °C, an additional band appears at 413 nm, which corresponds to the aggregated dye form.

Data set [8] has as its system Tel22 G-quadruplex. As to the kind of experiment: Thermal melting of Tel22 in sodium cacodylate buffer. As to conditions: Tel22, r = 1.0, sodium cacodylate buffer, pH = 7.0, I = 0.1 mol dm^−3; error ± 0.5 °C. The class given is binding, human. As for the experimental part: (§1) Thermal melting curves for DNA, RNA and their complexes with studied compounds were determined as previously described by following the absorption change at 260 nm as a function of temperature. The absorbance of the ligands was subtracted from every curve and the absorbance scale was normalized. Tm values are the midpoints of the transition curves determined from the maximum of the first derivative and checked graphically by the tangent method. The ∆Tm values were calculated by subtracting Tm of the free nucleic acid from Tm of the complex. Every ∆Tm value here reported was the average of two measurements. The error in ∆Tm is ±0.5 °C. 5′-AGGG(TTAGGG)3–3′(Tel22) was obtained from IDT (Integrated DNA Technologies, Coralville, IA, USA). Tel22 was dissolved in 0.1 M either in sodium cacodylate or potassium phosphate buffer. The starting Tel22 oligonucleotide solution was first heated up to 95 °C for 10 min, then slowly cooled to 10 °C at the cooling rate of 1 °C/min to allow DNA oligonucleotide to adopt a G-quadruplex structure. The G-quadruplex structure was confirmed by thermal melting and CD spectra. The concentration of G quadruplex was expressed in terms of oligonucleotide structure. In fluorimetric titrations, aliquots of Tel 22 solution were added to the solution of ligands (c ~ 2 × 10^−7 M, in SI).

The test system of the next data set is SK-OV-3 cells. As to the kind of experiment: MTT cytotoxicity assay, SK-OV-3. Format: cell-based. The conditions noted are these: Homo sapiens, SK-OV-3, 72 h incubation, ± SD. On the procedure: (§2) Human cervical carcinoma HeLa (GIBCO BRL, Invitrogen, Waltham, MA, USA), human melanoma MDA-MB-435S and human ovarian adenocarcinoma SK-OV-3 (ATCC-LGC Standards GmbH, Wesel, Germany) cell lines were purchased from indicated cell culture banks. Normal human skin fibroblasts were isolated from the upper arm of a donor at the Neurochemical Laboratory, Department of Chemistry and Biochemistry, School of Medicine, University of Zagreb. HeLa, MDA-MB-435S and fibroblasts were grown in Dulbecco’s Modified Eagle’s Medium (DMEM; Sigma-Aldrich, St. Louis, MI, USA) while the SK-OV-3 cell line was grown in McCoy’s 5A medium (Capricorn Scientific, Ebsdorfergrund, Germany). All media were supplemented with 10% fetal bovine serum (FBS; Sigma-Aldrich) and 50 I.U./mL penicillin and 50 μg/mL streptomycin. Cells were cultured in a humidified atmosphere of 5% CO2 at 37 °C and were sub-cultured every 3–4 days. HeLa, MDA-MB-435S, SK-OV-3 cells and fibroblasts were seeded in 96 well plates. Twenty-four hours later the cells were treated, in quadruplicate, with different concentrations of compounds (dissolved in DMSO, kept at 4 °C and protected from light). Following 72 h of incubation at 37 °C, the medium was aspired and modified 3-(4,5-dimethylthiazol-2-yl)-2,5-diphenyltetrazolium bromide (MTT) assay was used to determine the cytotoxic effect of the tested compounds. Three hours later, formazan crystals were dissolved in DMSO (0.17 mL/well), the plates were mechanically agitated for 20 min and the optical density at 600 nm was determined on a microtiter plate reader (Awareness Technology Inc., Palm City, FL, USA). The experiments were repeated three times.
For orientation: Tetrazolium assays rely on reduction of a dye to a coloured formazan, in cell work by metabolically active cells.

In data set [9] the target is Tel22 (5′-AGGG(TTAGGG)3–3′) G-quadruplex. Description: Fluorimetric titration with Tel22 in potassium phosphate buffer (K+ solution). As to conditions: Tel22, potassium phosphate buffer, pH = 7.0, I = 0.1 mol dm^−3; SPECFIT fit. The class given is binding, human. On the procedure:
(§3) Materials. Polynucleotides were purchased as noted: poly A–poly U, calf thymus ctDNA, poly(dAdT)2 and poly(dGdC)2 (Sigma-Aldrich, St. Louis, MI, USA). Polynucleotides were dissolved in Na-cacodylate buffer, I = 0.05 mol dm^−3, pH = 7.0. The calf thymus ctDNA was additionally sonicated and filtered through a […]. Polynucleotide concentration was determined spectroscopically as the concentration of phosphates. Spectrophotometric titrations were performed at pH = 7.0 (I = 0.05 mol dm^−3, sodium cacodylate buffer) by adding aliquots of polynucleotide solution into the solution of the studied compound for fluorimetric experiments and CD experiments were done by adding aliquots of the compound stock solution into the solution of a polynucleotide. In fluorimetric experiments, an excitation wavelength of λexc = 425, 431, 423, 427, 406 and 407 nm, respectively, was used to avoid the inner filter effect caused due to increasing absorbance of the polynucleotide. Emission was collected in the range λem = 400–700 nm. Values for Ka obtained by processing titration data using the Scatchard equation [27], all have satisfactory correlation coefficients (≥0.98).
as §1
(§4) Binding constants (log Ka) and stoichiometry of complexes were calculated from the fluorimetric data using non-linear least-square program SPECFIT [46], in the concentration range that corresponded to 20–80% complex formed.

A further data set deals with MDA-MB-435S cells. As to the kind of experiment: MTT cytotoxicity assay, MDA-MB-435S. The class given is cell-based. The conditions noted are these: Homo sapiens, 72 h incubation, ± SD. As for the experimental part:
as §2

The next data set deals with Fibroblasts. Description: MTT cytotoxicity assay, normal human skin fibroblasts. Format: cell-based. As to conditions: Fibroblast, 72 h incubation, ± SD. As for the experimental part:
as §2

Data set [10] relates to Tel22 G-quadruplex. As to the kind of experiment: Thermal melting of Tel22 in potassium phosphate buffer. The class given is binding, human. The conditions noted are these: Tel22, r = 1.0, potassium phosphate buffer, pH = 7.0, I = 0.1 mol dm^−3; error ±0.5 °C. On the procedure:
as §1

A further data set has as its system HeLa cells. Description: MTT cytotoxicity assay, HeLa. Format: cell-based. As to conditions: Homo sapiens, 72 h incubation, ± SD. As for the experimental part: as §2
Data set [11] addresses Tel22 (5′-AGGG(TTAGGG)3–3′) G-quadruplex. As to the kind of experiment: Fluorimetric titration with Tel22 in sodium cacodylate buffer (Na+ solution). The class given is binding, human. On the procedure:
as §3, §1, §4

Setting [12] is: K+ (potassium phosphate, I = 0.1 M).
The mark [13] stands for this setting: Na+ (sodium cacodylate, I = 0.1 M).

`CN1C(=Cc2[se]c3ccccc3[n+]2C)Sc2cc(Cl)ccc21` displayed a logKa in [1] of 7.78 ± 0.18. Moreover, in data set [1], the logKa1 is reported as 6.19 ± 0.01. Moreover, the figures for the “∆Tm” value in data set [2] (setting [12]) and in data set [2] (setting [13]) were 3.2 °C and 2.1 °C, respectively. Besides, the binding entry in data set [3] (bisignate ICD +440/−410 nm), in data set [4] (positive ICD at 440 nm) and in data set [5] (bisignate ICD +405/−385 nm) was “yes” each time.
`CN1C(=Cc2[se]c3ccccc3[n+]2C)Sc2ccccc21`: the logKa in data set [1] is given as 6.88 ± 0.05. In [1] (site 1 of 2), this molecule displayed a logKa1 of 7.26 ± 0.41. Further, the “∆Tm” value in data set [2] (setting [12]) and in [2] (setting [13]) was 0.5 °C throughout. Besides, the binding entry in data set [4] (positive ICD at 440 nm) and in [5] (bisignate ICD +405/−385 nm) was “yes” in each case.
Turning to `C[n+]1c(C=C2Sc3ccccc3N2CCCS)[se]c2ccccc21`, the results for the “∆Tm” value in data set [2] (setting [12]), in data set [2] (setting [13]) and in data set [6] were 5.1 °C, 2.1 °C and 4 °C, respectively.
`C[n+]1c(C=C2Sc3ccccc3N2CCS)[se]c2ccccc21`: the figures for the “∆Tm” value in data set [2] (setting [12]) and in data set [2] (setting [13]) were 6.9 °C and 2.0 °C, respectively. The binding entry in data set [3] (bisignate ICD +440/−400 nm), in [4] (bisignate ICD +440/−400 nm) and in data set [5] (bisignate ICD) was “yes” throughout.
`CN1/C(=C/c2[se]c3ccccc3[n+]2C)Sc2ccccc21` (as salt: sulphate) [Compound 3, 3-methyl-2-((3-methylbenzo[d]thiazol-2(3H)-ylidene)methyl)benzo[d][1,3]selenazol-3-ium methosulphate] registered a melting point greater than 300 °C.
In turn, `CN1/C(=C/c2[se]c3ccccc3[n+]2C)Sc2cc(Cl)ccc21` (as salt: sulphate) [Compound 4, 2-((6-chloro-3-methylbenzo[d]thiazol-2(3H)-ylidene)methyl)-3-methylbenzo[d][1,3]selenazol-3-ium methosulphate] gave a melting point greater than 300 °C.
For `C[n+]1c(/C=C2\Sc3ccccc3N2CCCS)[se]c2ccccc21` (as salt: sulphate) [Compound 5, 2-((3-(3-mercaptopropyl)benzo[d]thiazol-2(3H)-ylidene)methyl)-3-methylbenzo[d][1,3]selenazol-3-ium methosulphate], the melting point is 233 to 236 °C.
Take `C[n+]1c(/C=C2\Sc3ccccc3N2CCS)[se]c2ccccc21` (as salt: sulphate) [Compound 6, 2-((3-(2-mercaptoethyl)benzo[d]thiazol-2(3H)-ylidene)methyl)-3-methylbenzo[d][1,3]selenazol-3-ium methosulphate]: the melting point was in the range of 245 to 247 °C.
With `COc1ccc2c(c1)SC(=Cc1[se]c3ccccc3[n+]1C)N2CCCS(=O)(=O)[O-]` [Compound 2, 3-(6-methoxy-2-((3-methylbenzo[d][1,3]selenazol-3-ium-2-yl)methylene)benzo[d]thiazol-3(2H)-yl)propane-1-sulfonate], the melting point was greater than 300 °C. In data set [2] (setting [13]), the “∆Tm” value is 0 °C. Also, in data set [7] (DMSO, after several weeks), the “Aggregation in DMSO stock solution” value is “prone to aggregation”. Besides, in [7], the “Aggregation in aqueous buffer” value was “mixture of monomer and aggregated form”. Also, the “∆Tm” value in the data set on Tel22 G-quadruplex [8] was 0 °C.
Turning to `CN1/C(=C/c2[se]c3ccccc3[n+]2C)Sc2cc(Cl)ccc21` [Compound 4, 2-((6-chloro-3-methylbenzo[d]thiazol-2(3H)-ylidene)methyl)-3-methylbenzo[d][1,3]selenazol-3-ium methosulphate], the IC50 in the data set on SK-OV-3 cells was 1320 ± 125 nM; in the data set on MDA-MB-435S cells, 614 ± 77.6 nM; with Fibroblasts, greater than 2500 nM; with HeLa cells, 793 ± 157 nM. Further, the “Aggregation in aqueous buffer” value in data set [7] is on record as “do not form aggregates”. The “logKa (L + G ⇆ LG, 1:1 complex)” value in data set [9] stood at 7.78 ± 0.18. Besides, the “∆Tm” value in the data set on Tel22 G-quadruplex [8] is 2.1 °C; in the data set on Tel22 G-quadruplex [10] it was 3.2 °C. Moreover, the “logKa1 (L + G ⇆ LG)” value in data set [11] (Tel22, sodium cacodylate buffer, pH = 7.0, I = 0.1 mol dm^−3, SPECFIT fit of fluorescence titration) is 6.19 ± 0.01. In addition, in data set [11] (binding affinities Tel22 vs duplex DNA, in both the Na+ and K+ solutions), the “Selectivity for G-quadruplex over duplex DNA” value stood at 100 fold.

For orientation: melting point means the temperature, or range, at which the solid turns liquid. Broadly, the IC50 is the concentration at which inhibition is half-maximal.
